48 compounds from patent publication US10577373B2, “TYK2 inhibitors and uses thereof” (Nimbus Lakshmi, Inc., priority 2017, dated 2020) can be followed below.

Assay [1] concerns IL-12 induced STAT4 phophorylation mediated by Tyk2/JAK2 (heterodimeric complex). Briefly: IL-12 Induced pSTAT4 in Human PBMC. It is filed as cell-based. To be noted: 1.7 ng/mL IL-12. The text has this:
The IL-12 Induced pSTAT4 assay evaluates the inhibition of IL-12 induced STAT4 phophorylation mediated by Tyk2/JAK2 (heterodimeric complex).

Assay [2] concerns GM-CSF induced STAT5 phosphorylation mediated by the JAK2/JAK2 homdimeric complex. In words: GM-CSF Induced pSTAT5 in Human PBMC.
From the text: Human PBMC are isolated from buffy coat and are stored frozen for assays as needed.
Where [3] appears, read: Homo sapiens, PBMC, 20 min, read-out: PBMC_GMCSF_pSTAT5 IC50, human PBMC, GM-CSF 5 ng/mL for 20 minutes, pSTAT5.
Setting [4] is: read-out: PBMC_GMCSF_pSTAT5 IC50, human PBMC, GM-CSF 5 ng/mL for 20 minutes, pSTAT5.

Read-outs that look alike come from different tables or passages of the source.

As to `CNc1cc(Nc2cccnc2OC)nc2c(C(=O)NC[C@H](C)CO)cnn12` [I-483], the IC50 in assay [1] is less than 100 nM; in assay [2] (setting [3]), more than 50 µM.
Consider `[2H]C([2H])([2H])Oc1ncccc1Nc1cc(NC)n2ncc(C(=O)N[C@@H]3CCC[C@@H](O)C3)c2n1` [I-499], for which the IC50 in assay [1] was less than 100 nM; in assay [2] (setting [3]), more than 50 µM.
In the case of `[2H]C([2H])([2H])Oc1ncccc1Nc1cc(NC)n2ncc(C(=O)N[C@H]3CC[C@H](O)C3)c2n1` [I-500], the values for the IC50 in assay [1] and in assay [2] (setting [3]) were less than 100 nM and more than 50 µM, respectively.
Turning to `CNc1cc(Nc2cccn(-c3ncccc3F)c2=O)nc2c(C(=O)NCC(C)(C)CO)cnn12` [I-510], the half-inhibitory concentration (IC50) in assay [1] was less than 100 nM; in assay [2] (setting [3]), more than 50 µM.
For `CNc1cc(Nc2cccc(C3CCCOC3)n2)nc2c(C(=O)N[C@@H]3C[C@@H]3F)cnn12` (stereo partly drawn) [I-522], the IC50 was less than 100 nM in assay [1] and more than 50 µM in assay [2] (setting [3]).
For `CNc1cc(Nc2cccn([C@H]3CC[C@H](OC)CC3)c2=O)nc2c(C(=O)N[C@H]3CC[C@H]3O)cnn12` [I-539], the figures for the IC50 in assay [1] and in assay [2] (setting [3]) were less than 100 nM and more than 50 µM, respectively.
For the compound `CNc1cc(Nc2cccn([C@H]3CC[C@H](OC)CC3)c2=O)nc2c(C(=O)N[C@H]3CC[C@@H]3O)cnn12` [I-540], the IC50 in assay [1] is less than 100 nM; in assay [2] (setting [3]), more than 12.5 µM.
With `CNc1cc(Nc2cccn([C@H]3CC[C@H](OC)CC3)c2=O)nc2c(C(=O)NCC(C)(C)CO)cnn12` [I-544], the IC50 was less than 100 nM in assay [1] and more than 2.5 µM in assay [2] (setting [3]).
`CNc1cc(Nc2cccn([C@H]3CC[C@H](OC)CC3)c2=O)nc2c(C(=O)NCC3(CO)CC3)cnn12` [I-545]: the IC50 in assay [1] is 100 to 500 nM; in assay [2] (setting [3]), more than 2.5 µM.
On to `CNc1cc(Nc2cccnc2OC2CC2)nc2c(C(=O)N[C@H]3COC[C@H]3O)cnn12` [I-547], for which the IC50 in assay [1] was 100 to 500 nM; in assay [2] (setting [3]), more than 50 µM.
Turning to `CNc1cc(Nc2cccn(C3CC4(COC4)C3)c2=O)nc2c(C(=O)N[C@@H]3C[C@@H]3F)cnn12` [I-551, N-((1R,2S)-2-fluorocyclopropyl)-7-(methylamino)-5-((2-oxo-1-(2-oxaspiro[3.3]heptan-6-yl)-1,2-dihydropyridin-3-yl)amino)pyrazolo[1,5-a]pyrimidine-3-carboxamide], the values for the IC50 in assay [1] and in assay [2] (setting [3]) were less than 100 nM and more than 2.5 µM, respectively.
`CNc1cc(Nc2cc(F)cn([C@H]3CCCOC3)c2=O)nc2c(C(=O)N[C@H]3C[C@H]3F)cnn12` [I-559]: the IC50 in assay [1] was less than 100 nM; in assay [2] (setting [3]), more than 50 µM.
As for `CNc1cc(Nc2cccn([C@H]3CC[C@H](OC)CC3)c2=O)nc2c(C(=O)N[C@@H]3CC[C@@H]3O)cnn12` [I-560], the IC50 in assay [1] was less than 100 nM; in assay [2] (setting [3]) it was more than 2.5 µM.
With `CNc1cc(Nc2cccc([C@@H]3CCCOC3)n2)nc2c(C(=O)N[C@H]3C[C@H]3F)cnn12` [I-562], the IC50 was less than 100 nM in assay [1] and more than 50 µM in assay [2] (setting [3]).
For the compound `CNc1cc(Nc2cccc([C@H]3CCCOC3)n2)nc2c(C(=O)N[C@H]3C[C@H]3F)cnn12` [I-563], the IC50 in assay [1] was less than 100 nM; in assay [2] (setting [3]) it was more than 50 µM.
On to `CNc1cc(Nc2cccn(C3CCN(CCF)CC3)c2=O)nc2c(C(=O)N[C@H]3C[C@H]3F)cnn12` [I-570], for which the IC50 in assay [1] was less than 100 nM; in assay [2] (setting [3]) it was more than 50 µM.
As to `CNc1cc(-c2cn(C(C)C)c3ncccc23)nc2c(C(=O)N[C@@H]3CC[C@@H]3O)cnn12` [I-578], the IC50 was less than 100 nM in assay [1] and more than 50 µM in assay [2] (setting [3]).
On the same counts, the results for `CNc1cc(-c2cn(CCN3CCCCC3)c3ncccc23)nc2c(C(=O)N[C@H]3C[C@H]3F)cnn12` [I-585] are less than 100 nM and more than 12.5 µM.
Consider `CNc1cc(Nc2cccc(N3CCOCC3)n2)nc2c(C(=O)N[C@H]3C[C@H]3F)cnn12` [I-590], for which the IC50 is less than 100 nM in assay [1] and more than 12.5 µM in assay [2] (setting [3]).
`CNc1cc(Nc2cccc3ocnc23)nc2c(C(=O)NC3CC3)cnn12` [I-591]: the results for the IC50 in assay [1] and in assay [2] (setting [3]) were less than 100 nM and more than 12.5 µM, respectively.
Turning to `CNc1cc(Nc2cccc3ocnc23)nc2c(C(=O)N[C@H]3C[C@H]3F)cnn12` [I-592], the results for the IC50 in assay [1] and in assay [2] (setting [3]) were less than 100 nM and more than 12.5 µM, respectively.
On the same counts, the results for `CNc1cc(Nc2cccc([C@@H]3CCCOC3)n2)nc2c(C(=O)N[C@H]3CC[C@@H]3O)cnn12` [I-603] are less than 100 nM and more than 2.5 µM.
Consider `CNc1cc(Nc2cccn(-c3cn(C)nc3F)c2=O)nc2c(C(=O)NC3CC3)cnn12` [I-606], for which the half-maximal inhibitory concentration (IC50) in assay [1] was 100 to 500 nM; in assay [2] (setting [3]) it was more than 12.5 µM.
With `CNc1cc(Nc2cccn(-c3cn(C)nc3F)c2=O)nc2c(C(=O)N[C@H]3C[C@H]3F)cnn12` [I-607], the values for the IC50 in assay [1] and in assay [2] (setting [3]) were less than 100 nM and more than 50 µM, respectively.
`CNc1cc(Nc2cccnc2OC)nc2c(C(=O)NOC(C)(C)C)cnn12` [I-612, N-(tert-butoxy)-5-((2-methoxypyridin-3-yl)amino)-7-(methylamino) pyrazolo[1,5-a]pyrimidine-3-carboxamide]: the IC50 in assay [1] was […]; in assay [2] (Homo sapiens, PBMC, 20 min, read-out: PBMC_GMCSF_pSTAT5 IC50), more than 50 µM.
Consider `CNc1cc(Nc2cccn([C@@H]3CCC[C@H](OC)C3)c2=O)nc2c(C(=O)NC3CC3)cnn12` [I-621], for which the IC50 is less than 100 nM in assay [1] and more than 50 µM in assay [2] (setting [3]).
For `CNc1cc(-c2cn(C(C)C)c3ncccc23)nc2c(C(=O)N[C@H]3C[C@H](O)C3)cnn12` [I-630, N-((1r,3r)-3-hydroxycyclobutyl)-5-(1-isopropyl-1H-pyrrolo[2,3-b]pyridin-3-yl)-7-(methylamino)pyrazolo[1,5-a]pyrimidine-3-carboxamide], the IC50 in assay [1] was less than 100 nM; in assay [2] (setting [3]), more than 2.5 µM.
Turning to `CNc1cc(Nc2cccn([C@H]3CC[C@H](OC)CC3)c2=O)nc2c(C(=O)N[C@@H]3CC[C@H]3O)cnn12` [I-635], the 50% inhibitory concentration (IC50) in assay [1] is less than 100 nM; in assay [2] (setting [3]), more than 50 µM.
In the case of `CNc1cc(-c2cn(C(C)C)c3ncccc23)nc2c(C(=O)N[C@H]3CC[C@H]3O)cnn12` [I-637], the IC50 in assay [1] is less than 100 nM; in assay [2] (setting [3]) it was more than 12.5 µM.
On to `CNc1cc(-c2cn(C(C)C)c3ncccc23)nc2c(C(=O)N[C@H]3CC[C@@H]3O)cnn12` [I-639], for which the IC50 in assay [1] is less than 100 nM; in assay [2] (setting [4]) it was more than 12.5 µM.
Regarding `CNc1cc(-c2cn(C(C)C)c3ncccc23)nc2c(C(=O)N[C@@H]3CC[C@H]3O)cnn12` [I-640], the figures for the IC50 in assay [1] and in assay [2] (setting [3]) were less than 100 nM and more than 12.5 µM, respectively.
Consider `CNc1cc(Nc2cccc3ocnc23)nc2c(C(=O)N[C@@H]3CC[C@@H]3O)cnn12` [I-661], for which the figures for the IC50 in assay [1] and in assay [2] (setting [4]) were less than 100 nM and more than 12.5 µM, respectively.
Take `CNc1cc(Nc2cccc([C@@H]3CCCOC3)n2)nc2c(C(=O)N[C@@H]3CC[C@H]3O)cnn12` [I-665]: the IC50 in assay [1] is less than 100 nM; in assay [2] (setting [3]), more than 2.5 µM.
For the compound `CNc1cc(Nc2cccc([C@H]3CCCOC3)n2)nc2c(C(=O)N[C@@H]3CC[C@H]3O)cnn12` [I-667], the IC50 was less than 100 nM in assay [1] and more than 12.5 µM in assay [2] (setting [3]).
For `CNc1cc(Nc2cccn([C@H]3CC[C@](C)(OC)CC3)c2=O)nc2c(C(=O)N[C@@H]3CC[C@@H]3O)cnn12` [I-670, N-(2-hydroxycyclobutyl)-5-((1-((1R,4S)-4-methoxy-4-methylcyclohexyl)-2-oxo-1,2-dihydropyridin-3-yl)amino)-7-(methylamino)pyrazolo[1,5-a]pyrimidine-3-carboxamide], the IC50 is less than 100 nM in assay [1] and more than 50 µM in assay [2] (setting [4]).
Consider `CNc1cc(Nc2cccn(-c3ncc(OC)cc3F)c2=O)nc2c(C(=O)N[C@H]3C[C@H]3F)cnn12` [I-673], for which the values for the IC50 in assay [1] and in assay [2] (setting [3]) were less than 100 nM and more than 50 µM, respectively.
In the case of `CNc1cc(Nc2cccn(-c3ncc(C)s3)c2=O)nc2c(C(=O)N[C@@H]3CC[C@@H]3O)cnn12` [I-677], the IC50 is less than 100 nM in assay [1] and more than 2.5 µM in assay [2] (setting [4]).
For the compound `CNc1cc(Nc2cccn(-c3ccccn3)c2=O)nc2c(C(=O)NC3CC3)cnn12` [I-680], the IC50 in assay [1] was less than 100 nM; in assay [2] (setting [3]), more than 12.5 µM.
For `CNc1cc(Nc2cccn(-c3ccccn3)c2=O)nc2c(C(=O)N[C@H]3C[C@H]3F)cnn12` [I-681], the figures for the IC50 in assay [1] and in assay [2] (setting [3]) were less than 100 nM and more than 12.5 µM, respectively.
On the same counts, the results for `CNc1cc(Nc2cc(Cl)cn(C3CCCOC3)c2=O)nc2c(C(=O)N[C@H]3C[C@H]3F)cnn12` (stereo partly drawn) [I-693] are less than 100 nM and more than 50 µM.
On the same counts, the results for `CNc1cc(Nc2cccn(-c3nc(C)co3)c2=O)nc2c(C(=O)N[C@@H]3CC[C@@H]3O)cnn12` [I-706] are less than 100 nM and more than 50 µM.
For `CNc1cc(Nc2cccc(N3CCC34COC4)n2)nc2c(C(=O)N[C@H]3C[C@H]3F)cnn12` [I-709], the IC50 was less than 100 nM in assay [1] and more than 50 µM in assay [2] (setting [3]).
In the case of `CNc1cc(Nc2cccnc2OC)nc2c(C(=O)NO)cnn12` [I-710, N-hydroxy-5-((2-methoxypyridin-3-yl)amino)-7-(methylamino)pyrazolo[1,5-a]pyrimidine-3-carboxamide], the IC50 in assay [1] is 100 to 500 nM; in assay [2] (setting [3]) it was more than 50 µM.
As to `CNc1cc(Nc2cc(Cl)cn(C3CCCOC3)c2=O)nc2c(C(=O)NC3CC3)cnn12` (stereo not drawn) [I-711], the IC50 is less than 100 nM in assay [1] and more than 50 µM in assay [2] (setting [3]).
Turning to `CNc1cc(Nc2cc(Cl)cn(C3CCOCC3)c2=O)nc2c(C(=O)N[C@H]3CC[C@@H]3O)cnn12` [I-712], the IC50 in assay [1] was less than 100 nM; in assay [2] (setting [3]) it was more than 12.5 µM.
On the same counts, the results for `CNc1cc(Nc2cccn(-c3ncco3)c2=O)nc2c(C(=O)NC3CC3)cnn12` [I-715] are less than 100 nM and more than 2.5 µM.
For the compound `CNc1cc(Nc2cccn(-c3ncco3)c2=O)nc2c(C(=O)N[C@H]3C[C@H]3F)cnn12` [I-716], the IC50 in assay [1] is less than 100 nM; in assay [2] (setting [3]), more than 2.5 µM.
In the case of `CNc1cc(Nc2cccn(-c3cnc(C)o3)c2=O)nc2c(C(=O)N[C@H]3C[C@H]3F)cnn12` [I-718], the IC50 was less than 100 nM in assay [1] and more than 12.5 µM in assay [2] (setting [3]).
